Experimental data reported in ChEMBL document CHEMBL4028858, “Structural Biology-Inspired Discovery of Novel KRAS-PDEδ Inhibitors” (J Med Chem, 2017).
In brackets after ≈: the same amount, converted by molar mass. Values belong to the molecule of their own block, whether it stands above or below them. Activity calls are given as the source filed them. The calls are words filed in the database; no cut-off is given here.

What was measured:
[1] = test system: CAPAN-1; test: Antiproliferative activity against KRAS-dependent human Capan1 cells after 48 hrs by CCK8 assay
[2] = Aqueous solubility of the compound at 5 mg/ml measured after 24 hrs by HPLC method; type: physicochemical; conditions: water (aqueous)
[3] = target: T1, Retinal rod rhodopsin-sensitive cGMP 3',5'-cyclic phosphodiesterase subunit delta (Homo sapiens, UniProt O43924)
T1 sequence (O43924 whole entry): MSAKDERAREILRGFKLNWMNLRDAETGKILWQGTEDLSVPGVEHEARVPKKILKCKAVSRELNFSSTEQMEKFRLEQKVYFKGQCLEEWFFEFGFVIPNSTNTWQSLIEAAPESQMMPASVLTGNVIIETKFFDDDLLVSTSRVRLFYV
Description: Inhibition of Atrovastatin-PEG3-FITC binding to PDEdelta (unknown origin) incubated for 60 mins by fluorescence anisotropy assay

[4] = test system: CAPAN-1; test: Induction of apoptosis in KRAS-dependent human Capan1 cells at 25 uM incubated for 48 hrs by Annexin-V FITC/propidium iodide staining-based flow cytometry relative to control; type: functional
[5] = test system: CAPAN-1; test: Downregulation of PDEdelta protein expression in KRAS-dependent human Capan1 cells at 25 uM incubated for 2 hrs by immunofluorescence staining-based method; type: functional, cell-based
[6] = test system: CAPAN-1; test: Induction of apoptosis in KRAS-dependent human Capan1 cells at 50 uM incubated for 48 hrs by Annexin-V FITC/propidium iodide staining-based flow cytometry relative to control; type: functional
[7] = target: T1, Retinal rod rhodopsin-sensitive cGMP 3',5'-cyclic phosphodiesterase subunit delta; conditions: 1 mM
Description: Binding affinity to PDEdelta (unknown origin) assessed as change in melting temperature at 1 mM by circular dichroism spectroscopy

[8] = test system: CAPAN-1; test: Antiproliferative activity against KRAS-dependent human Capan1 cells at 100 uM after 48 hrs by CCK8 assay relative to control; type: functional
[9] = test system: CAPAN-1; test: Induction of apoptosis in KRAS-dependent human Capan1 cells incubated for 48 hrs by Annexin-V FITC/propidium iodide staining-based flow cytometry; type: functional, cell-based
[10] = test system: CAPAN-1; test: Potency index, ratio of deltazinone IC50 to test compound IC50 for KRAS-dependent human Capan1 cells; type: functional
[11] = species on record: Homo sapiens; test: Effect on EGF-induced ERK phosphorylation at Thr202/Tyr204 in human Capan1 cells at 25 uM after 1 hr by Western blot method
[12] = target: RAC-alpha serine/threonine-protein kinase (Homo sapiens) (UniProt P31749); test: […] of EGF-induced AKT phosphorylation at Ser473 in human Capan1 cells at 25 uM after 1 hr by Western blot method; type: cell-based
Chain of RAC-alpha serine/threonine-protein kinase (Homo sapiens) (P31749 whole entry): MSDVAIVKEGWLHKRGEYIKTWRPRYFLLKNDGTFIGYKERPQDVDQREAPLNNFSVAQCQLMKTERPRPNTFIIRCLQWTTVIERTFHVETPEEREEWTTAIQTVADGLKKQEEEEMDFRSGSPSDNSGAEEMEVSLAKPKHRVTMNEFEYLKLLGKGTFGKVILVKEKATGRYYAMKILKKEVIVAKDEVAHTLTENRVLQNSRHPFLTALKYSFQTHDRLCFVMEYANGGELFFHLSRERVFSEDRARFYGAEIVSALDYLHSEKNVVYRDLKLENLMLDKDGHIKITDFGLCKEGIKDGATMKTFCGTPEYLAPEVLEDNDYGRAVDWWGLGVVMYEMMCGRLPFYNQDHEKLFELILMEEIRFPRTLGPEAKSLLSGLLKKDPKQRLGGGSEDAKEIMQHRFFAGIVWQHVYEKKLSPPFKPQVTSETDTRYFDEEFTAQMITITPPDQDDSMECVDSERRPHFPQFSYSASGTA

[13] = test system: CAPAN-1; test: Induction of apoptosis in KRAS-dependent human Capan1 cells at 10 uM incubated for 48 hrs by Annexin-V FITC/propidium iodide staining-based flow cytometry relative to control; type: functional
[14] = target: T1, Retinal rod rhodopsin-sensitive cGMP 3',5'-cyclic phosphodiesterase subunit delta; conditions: 10 uM
Description: Inhibition of PDEdelta in KRAS-dependent human Capan1 cells assessed as increase in endogenous RAS distribution to endomembranes at 10 uM incubated for 2 hrs by immunofluorescence staining based method

[15] = target: T1, Retinal rod rhodopsin-sensitive cGMP 3',5'-cyclic phosphodiesterase subunit delta; conditions: 10 uM; remark: listed apart in the source
Description: Inhibition of PDEdelta in KRAS-dependent human Capan1 cells assessed as downregulation of EGF-induced AKT phosphorylation at Ser473 at 10 uM incubated for >5 hrs by Western blot method

[16] = test system: CAPAN-1; test: Downregulation of PDEdelta protein expression in KRAS-dependent human Capan1 cells at 10 uM incubated for 2 hrs by immunofluorescence staining-based method; type: functional, cell-based
[17] = target: T1, Retinal rod rhodopsin-sensitive cGMP 3',5'-cyclic phosphodiesterase subunit delta; conditions: 10 uM; remark: listed apart in the source
Description: Inhibition of PDEdelta in KRAS-dependent human Capan1 cells assessed as downregulation of EGF-induced ERK phosphorylation at Thr202/Thr204 at 10 uM incubated for >5 hrs by Western blot method

Compound: O=C1c2ccccc2N[C@@H](c2ccccc2F)N1CCN1CCC(N2C(=O)c3ccccc3N[C@H]2c2ccccc2F)CC1
Activity [5]: Active
Activity [6]: 39.3%
Activity [4]: 23.6%

Compound: O=C1c2ccccc2N[C@H](c2ccccc2F)N1c1ccccc1
ΔTm [7]: 5.75 °C

Compound: O=C1c2cccc3cccc(c23)N1c1ccc(-c2ccccc2)cc1
solubility at 24 h [2]: 0.37 µM (≈ 0.119 µg/mL)

Compound: O=C1c2ccccc2NC(c2ccccc2F)N1c1ccccc1 (racemic)
ΔTm [7]: 12.7 °C

Compound: O=C1c2ccccc2NC(c2ccccc2F)N1CCCCCN1C(=O)c2ccccc2NC1c1ccccc1F (stereo not given)
solubility at 24 h [2]: 8.9 µM (≈ 4.92 µg/mL)

Compound: Cc1ccc(-n2nc3c(=O)n(CCCN4CCC(N5C(=O)c6ccccc6NC5c5ccccc5F)CC4)nc(C)c3c2C)cc1 (stereo not given)
IC50 ([1]; Homo sapiens, CAPAN-1, 48 h): 27.6 µM
solubility at 24 h [2]: 403 µM (≈ 250 µg/mL)
Activity [9]: Dose-dependent effect
Activity [4]: 50%

Compound: O=C1c2ccccc2NC(c2ccccc2F)N1CCCCCCCN1C(=O)c2ccccc2NC1c1ccccc1F (stereo not given)
solubility at 24 h [2]: 30.9 µM (≈ 17.9 µg/mL)

Compound: Cc1ccc(-n2nc3c(=O)n(CCC(=O)N4CCC(N5C(=O)c6ccccc6NC5c5ccccc5F)CC4)nc(C)c3c2C)cc1 (stereo in doubt; (+)-3b)
IC50 ([1]; capan-1): 12.4 µM
Kd [3]: 0.0006 µM
Ratio IC50 [10]: 4

Compound: O=C1c2ccccc2NC(c2ccccc2F)N1CCCCCCN1C(=O)c2ccccc2NC1c1ccccc1F (stereo not given)
solubility at 24 h [2]: 14 µM (≈ 7.93 µg/mL)

Compound: Cc1ccc(-n2nc3c(=O)n(CCCC(=O)NCC(C)c4ccccc4)nc(C)c3c2C)cc1 (stereo not given)
Activity [11]: inactive
IC50 ([1]; Homo sapiens, CAPAN-1, 48 h): 56.9 µM
Activity [12]: Active
Activity [13]: 10%

Compound: O=C1c2ccccc2N[C@@H](c2ccccc2F)N1c1ccccc1
ΔTm [7]: 14 °C

Now from value to molecule, other results behind:

solubility at 24 h [2]: 268 µM (≈ 170 µg/mL)
Kd [3]: 0.002 µM
Compound: Cc1ccc(-n2nc3c(=O)n(CCC(=O)N4CCC(N5C(=O)c6ccccc6NC5c5ccccc5F)CC4)nc(C)c3c2C)cc1 (stereo in doubt; 3b) [listing 1 of 2 here]
IC50 ([1]; capan-1): 18.6 µM
Activity [4]: 50%

solubility at 24 h [2]: 3.2 µM (≈ 1.93 µg/mL)
Compound: O=C1c2ccccc2NC(c2ccccc2F)N1CCOc1ccc(N2C(=O)c3ccccc3NC2c2ccccc2F)cc1 (stereo not given)

solubility at 24 h [2]: 70.6 µM (≈ 41.9 µg/mL)
Compound: O=C1c2ccccc2NC(c2ccccc2F)N1CCN1CCC(N2C(=O)c3ccccc3NC2c2ccccc2F)CC1 (stereo not given)
Activity [8]: 48.9%

Kd [3]: 0.037 µM
Compound: Cc1ccc(-n2nc3c(=O)n(CCC(=O)N4CCC(N5C(=O)c6ccccc6NC5c5ccccc5F)CC4)nc(C)c3c2C)cc1 (single isomer, unassigned; (-))
IC50 ([1]; capan-1): 25.6 µM

inhibition [14]: Active
inhibition [15]: Active
inhibition [17]: Active
Compound: Cc1ccc(-n2nc3c(=O)n(CCC(=O)N4CCC(N5C(=O)c6ccccc6NC5c5ccccc5F)CC4)nc(C)c3c2C)cc1 (stereo in doubt; 3b) [listing 2 of 2 here]
Activity [9]: Dose-dependent effect
Activity [16]: Active
